Measured values as given in PMC6409085, “Three odorant-binding proteins are involved in the behavioral response of Sogatella furcifera to rice plant volatiles” (PeerJ, 2019).
pIC50: −log10 of the molar value. Values joined by “and” are separate entries in the source; they are usually repeats but may differ in a detail not shown here. Equal values may be shown once.

Assays:
Assay in all cases: biochemical
Format in all cases: binding
SfurOBP1 = SfurOBP1 (Sogatella furcifera, UniProt V5T8N5); conditions: for Fluorescence competitive binding assay, fluorescence intensity: OBP1, three replicate columns
Chain of SfurOBP1 (V5T8N5 entry or part of it): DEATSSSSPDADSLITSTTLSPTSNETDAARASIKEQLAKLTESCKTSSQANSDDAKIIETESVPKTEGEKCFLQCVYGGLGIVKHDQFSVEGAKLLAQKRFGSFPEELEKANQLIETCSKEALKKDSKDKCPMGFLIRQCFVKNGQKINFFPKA
Summary of the method: (§1)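 Protein 2.0 µM + 1-NPN 2.0 µM, 50 mM Tris-HCl pH 7.4; competitor odorants 2, 4 … 20 µM final; read 2 min post-addition, ex 337/em 390–490 nm; n=3. K1-NPN from 1-NPN titration/Scatchard; Ki from IC50 corrected for free 1-NPN.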

SfurOBP11 = SfurOBP11 (Sogatella furcifera, UniProt V5T6E3)
Chain of SfurOBP11 (V5T6E3 entry or part of it): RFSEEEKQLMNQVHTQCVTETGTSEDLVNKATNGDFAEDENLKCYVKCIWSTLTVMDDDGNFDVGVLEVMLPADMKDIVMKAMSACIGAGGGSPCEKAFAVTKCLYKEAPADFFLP
Summary of the method: as §1

SfurOBP3 = SfurOBP3 (Sogatella furcifera, UniProt V5T818); conditions: for Fluorescence competitive binding assay, fluorescence intensity: OBP3, three replicate columns
Chain of SfurOBP3 (V5T818 entry or part of it): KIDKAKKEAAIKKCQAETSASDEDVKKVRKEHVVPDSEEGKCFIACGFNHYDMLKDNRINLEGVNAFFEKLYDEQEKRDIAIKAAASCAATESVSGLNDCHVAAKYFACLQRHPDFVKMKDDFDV
Summary of the method: as §1

SfurOBP2 = SfurOBP2 (Sogatella furcifera, UniProt V5T759)
Chain of SfurOBP2 (V5T759 entry or part of it): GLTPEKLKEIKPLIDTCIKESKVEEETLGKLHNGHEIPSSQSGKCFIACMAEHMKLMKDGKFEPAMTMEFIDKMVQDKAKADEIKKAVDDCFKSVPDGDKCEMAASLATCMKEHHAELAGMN
Summary of the method: as §1

CCCCCCCCCCOCCCCCCCCCC [didecyl ether]
Fluorescence competitive binding assay, fluorescence intensity (SfurOBP1; ligand concentration 2 (μM)): 13439 and 10181 and 10387
Fluorescence competitive binding assay, fluorescence intensity (SfurOBP1; ligand concentration 4 (μM)): 12999 and 14054 and 13054
Fluorescence competitive binding assay, fluorescence intensity (SfurOBP1; ligand concentration 6 (μM)): 17843 and 17435 and 18755
Fluorescence competitive binding assay, fluorescence intensity (SfurOBP1; ligand concentration 8 (μM)): 20344 and 21618 and 19391
Fluorescence competitive binding assay, fluorescence intensity (SfurOBP1; ligand concentration 10 (μM)): 25143 and 20920 and 29597
Fluorescence competitive binding assay, fluorescence intensity (SfurOBP1; ligand concentration 12 (μM)): 25050 and 26471 and 24718
Fluorescence competitive binding assay, fluorescence intensity (SfurOBP1; ligand concentration 14 (μM)): 31790 and 28307 and 28799
Fluorescence competitive binding assay, fluorescence intensity (SfurOBP1; ligand concentration 16 (μM)): 25660 and 26360 and 27874
Fluorescence competitive binding assay, fluorescence intensity (SfurOBP1; ligand concentration 18 (μM)): 34663 and 37908 and 36994
Fluorescence competitive binding assay, fluorescence intensity (SfurOBP1; ligand concentration 20 (μM)): 37718 and 33824 and 31648
pIC50 (SfurOBP1; SfurOBP1, protein and 1-NPN both 2.0 µM, competitor 2-20 µM, read-out: IC50): < 4.70
pIC50 (SfurOBP11; SfurOBP11, protein and 1-NPN both 2.0 µM, competitor 2-20 µM, read-out: IC50): < 4.70
Fluorescence intensity, fluorescence competitive binding assay, OBP11 (SfurOBP11; ligand concentration 2, replicate 1): 43164
Fluorescence intensity, fluorescence competitive binding assay, OBP11 (SfurOBP11; ligand concentration 2, replicate 2): 38605
Fluorescence intensity, fluorescence competitive binding assay, OBP11 (SfurOBP11; ligand concentration 2, replicate 3): 37407
Fluorescence intensity, fluorescence competitive binding assay, OBP11 (SfurOBP11; ligand concentration 4, replicate 1): 45394
Fluorescence intensity, fluorescence competitive binding assay, OBP11 (SfurOBP11; ligand concentration 4, replicate 2): 44519
Fluorescence intensity, fluorescence competitive binding assay, OBP11 (SfurOBP11; ligand concentration 4, replicate 3): 44324
Fluorescence intensity, fluorescence competitive binding assay, OBP11 (SfurOBP11; ligand concentration 6, replicate 1): 52018
Fluorescence intensity, fluorescence competitive binding assay, OBP11 (SfurOBP11; ligand concentration 6, replicate 2): 51596
Fluorescence intensity, fluorescence competitive binding assay, OBP11 (SfurOBP11; ligand concentration 6, replicate 3): 52439
Fluorescence intensity, fluorescence competitive binding assay, OBP11 (SfurOBP11; ligand concentration 8, replicate 1): 52547
Fluorescence intensity, fluorescence competitive binding assay, OBP11 (SfurOBP11; ligand concentration 8, replicate 2): 53605
Fluorescence intensity, fluorescence competitive binding assay, OBP11 (SfurOBP11; ligand concentration 8, replicate 3): 57390
Fluorescence intensity, fluorescence competitive binding assay, OBP11 (SfurOBP11; ligand concentration 10, replicate 1): 53386
Fluorescence intensity, fluorescence competitive binding assay, OBP11 (SfurOBP11; ligand concentration 10, replicate 2): 50348
Fluorescence intensity, fluorescence competitive binding assay, OBP11 (SfurOBP11; ligand concentration 10, replicate 3): 61467
Fluorescence intensity, fluorescence competitive binding assay, OBP11 (SfurOBP11; ligand concentration 12, replicate 1): 60450
Fluorescence intensity, fluorescence competitive binding assay, OBP11 (SfurOBP11; ligand concentration 12, replicate 2): 60637
Fluorescence intensity, fluorescence competitive binding assay, OBP11 (SfurOBP11; ligand concentration 12, replicate 3): 60823
Fluorescence intensity, fluorescence competitive binding assay, OBP11 (SfurOBP11; ligand concentration 14, replicate 1): 64649
Fluorescence intensity, fluorescence competitive binding assay, OBP11 (SfurOBP11; ligand concentration 14, replicate 2): 70642
Fluorescence intensity, fluorescence competitive binding assay, OBP11 (SfurOBP11; ligand concentration 14, replicate 3): 65311
Fluorescence intensity, fluorescence competitive binding assay, OBP11 (SfurOBP11; ligand concentration 16, replicate 1): 64270
Fluorescence intensity, fluorescence competitive binding assay, OBP11 (SfurOBP11; ligand concentration 16, replicate 2): 67002
Fluorescence intensity, fluorescence competitive binding assay, OBP11 (SfurOBP11; ligand concentration 16, replicate 3): 65982
Fluorescence intensity, fluorescence competitive binding assay, OBP11 (SfurOBP11; ligand concentration 18, replicate 1): 78706
Fluorescence intensity, fluorescence competitive binding assay, OBP11 (SfurOBP11; ligand concentration 18, replicate 2): 81987
Fluorescence intensity, fluorescence competitive binding assay, OBP11 (SfurOBP11; ligand concentration 18, replicate 3): 75370
Fluorescence intensity, fluorescence competitive binding assay, OBP11 (SfurOBP11; ligand concentration 20, replicate 1): 97463
Fluorescence intensity, fluorescence competitive binding assay, OBP11 (SfurOBP11; ligand concentration 20, replicate 2): 75326
Fluorescence intensity, fluorescence competitive binding assay, OBP11 (SfurOBP11; ligand concentration 20, replicate 3): 72923
Fluorescence competitive binding assay, fluorescence intensity (SfurOBP3; ligand concentration 2): 87733 and 85025 and 77897
Fluorescence competitive binding assay, fluorescence intensity (SfurOBP3; ligand concentration 4): 115777 and 106868 and 104692
Fluorescence competitive binding assay, fluorescence intensity (SfurOBP3; ligand concentration 6): 125530 and 125631 and 129726
Fluorescence competitive binding assay, fluorescence intensity (SfurOBP3; ligand concentration 8): 107521 and 145667 and 147221
Fluorescence competitive binding assay, fluorescence intensity (SfurOBP3; ligand concentration 10): 173091 and 157740 and 127122
Fluorescence competitive binding assay, fluorescence intensity (SfurOBP3; ligand concentration 12): 158103 and 182941 and 142916
Fluorescence competitive binding assay, fluorescence intensity (SfurOBP3; ligand concentration 14): 176147 and 111843 and 160442
Fluorescence competitive binding assay, fluorescence intensity (SfurOBP3; ligand concentration 16): 151941 and 158990 and 157774
Fluorescence competitive binding assay, fluorescence intensity (SfurOBP3; ligand concentration 18): 173084 and 168625 and 167342
Fluorescence competitive binding assay, fluorescence intensity (SfurOBP3; ligand concentration 20): 193319 and 125518 and 175321
pIC50 (SfurOBP3; SfurOBP3, protein and 1-NPN both 2.0 µM, competitor 2-20 µM, read-out: IC50): < 4.70
pIC50 (SfurOBP2; SfurOBP2, protein and 1-NPN both 2.0 µM, competitor 2-20 µM, read-out: IC50): < 4.70
Fluorescence competitive binding assay, OBP2 (raw fluorescence reading) (SfurOBP2; ligand concentration 2 (unit not given), replicate column 1 of 3): 18915
Fluorescence competitive binding assay, OBP2 (raw fluorescence reading) (SfurOBP2; ligand concentration 2 (unit not given), replicate column 2 of 3): 20597
Fluorescence competitive binding assay, OBP2 (raw fluorescence reading) (SfurOBP2; ligand concentration 2 (unit not given), replicate column 3 of 3): 23440
Fluorescence competitive binding assay, OBP2 (raw fluorescence reading) (SfurOBP2; ligand concentration 4 (unit not given), replicate column 1 of 3): 24181
Fluorescence competitive binding assay, OBP2 (raw fluorescence reading) (SfurOBP2; ligand concentration 4 (unit not given), replicate column 2 of 3): 28014
Fluorescence competitive binding assay, OBP2 (raw fluorescence reading) (SfurOBP2; ligand concentration 4 (unit not given), replicate column 3 of 3): 25410
Fluorescence competitive binding assay, OBP2 (raw fluorescence reading) (SfurOBP2; ligand concentration 6 (unit not given), replicate column 1 of 3): 34688
Fluorescence competitive binding assay, OBP2 (raw fluorescence reading) (SfurOBP2; ligand concentration 6 (unit not given), replicate column 2 of 3): 31794
Fluorescence competitive binding assay, OBP2 (raw fluorescence reading) (SfurOBP2; ligand concentration 6 (unit not given), replicate column 3 of 3): 34987
Fluorescence competitive binding assay, OBP2 (raw fluorescence reading) (SfurOBP2; ligand concentration 8 (unit not given), replicate column 1 of 3): 33082
Fluorescence competitive binding assay, OBP2 (raw fluorescence reading) (SfurOBP2; ligand concentration 8 (unit not given), replicate column 2 of 3): 40303
Fluorescence competitive binding assay, OBP2 (raw fluorescence reading) (SfurOBP2; ligand concentration 8 (unit not given), replicate column 3 of 3): 37763
Fluorescence competitive binding assay, OBP2 (raw fluorescence reading) (SfurOBP2; ligand concentration 10 (unit not given), replicate column 1 of 3): 37285
Fluorescence competitive binding assay, OBP2 (raw fluorescence reading) (SfurOBP2; ligand concentration 10 (unit not given), replicate column 2 of 3): 44653
Fluorescence competitive binding assay, OBP2 (raw fluorescence reading) (SfurOBP2; ligand concentration 10 (unit not given), replicate column 3 of 3): 45169
Fluorescence competitive binding assay, OBP2 (raw fluorescence reading) (SfurOBP2; ligand concentration 12 (unit not given), replicate column 1 of 3): 40538
Fluorescence competitive binding assay, OBP2 (raw fluorescence reading) (SfurOBP2; ligand concentration 12 (unit not given), replicate column 2 of 3): 46457
Fluorescence competitive binding assay, OBP2 (raw fluorescence reading) (SfurOBP2; ligand concentration 12 (unit not given), replicate column 3 of 3): 42564
Fluorescence competitive binding assay, OBP2 (raw fluorescence reading) (SfurOBP2; ligand concentration 14 (unit not given), replicate column 1 of 3): 47395
Fluorescence competitive binding assay, OBP2 (raw fluorescence reading) (SfurOBP2; ligand concentration 14 (unit not given), replicate column 2 of 3): 46610
Fluorescence competitive binding assay, OBP2 (raw fluorescence reading) (SfurOBP2; ligand concentration 14 (unit not given), replicate column 3 of 3): 49253
Fluorescence competitive binding assay, OBP2 (raw fluorescence reading) (SfurOBP2; ligand concentration 16 (unit not given), replicate column 1 of 3): 41133
Fluorescence competitive binding assay, OBP2 (raw fluorescence reading) (SfurOBP2; ligand concentration 16 (unit not given), replicate column 2 of 3): 50168
Fluorescence competitive binding assay, OBP2 (raw fluorescence reading) (SfurOBP2; ligand concentration 16 (unit not given), replicate column 3 of 3): 50416
Fluorescence competitive binding assay, OBP2 (raw fluorescence reading) (SfurOBP2; ligand concentration 18 (unit not given), replicate column 1 of 3): 50240
Fluorescence competitive binding assay, OBP2 (raw fluorescence reading) (SfurOBP2; ligand concentration 18 (unit not given), replicate column 2 of 3): 52962
Fluorescence competitive binding assay, OBP2 (raw fluorescence reading) (SfurOBP2; ligand concentration 18 (unit not given), replicate column 3 of 3): 54896
Fluorescence competitive binding assay, OBP2 (raw fluorescence reading) (SfurOBP2; ligand concentration 20 (unit not given), replicate column 1 of 3): 51479
Fluorescence competitive binding assay, OBP2 (raw fluorescence reading) (SfurOBP2; ligand concentration 20 (unit not given), replicate column 2 of 3): 53666
Fluorescence competitive binding assay, OBP2 (raw fluorescence reading) (SfurOBP2; ligand concentration 20 (unit not given), replicate column 3 of 3): 47381
